The results in this text go back to patent US20060173080A1, “Methods of modulating TNF using bupropion” (The Regents of the University of California, priority 2002, published 2006).

For the test, the system named is TNF-alpha. Put plainly: TNF level in patients with congestive heart failure before and on bupropion. It counts as in vivo, human. To be noted: for TNF: NYSHA Class I CHF. The protocol: A person with NYSHA Class I CHF who started on bupropion for major depression. Their TNF before bupropion was 347 pg/ml and 5 pg/ml after two months on bupropion 150 mg twice a day (BID). […] In addition, a person with a history of two myocardial infarctions and NYSHA Class II CHF, who started on bupropion for major depression and desire to stop a 1.5 container/day chewing tobacco habit. Their TNF before starting bupropion was 433 pg/ml, and […] and then four weeks on bupropion 150 mg three times a day (TID). They subsequently stopped using tobacco and their depression is in remission. Finally, a person with NYSHA Class I CHF-TNF was 303 pg/ml before bupropion was started for depression and 7 pg/ml on 150 mg TID.

Where a name gives a salt, the structure may show the parent alone.

For the compound `CC(NC(C)(C)C)C(=O)c1cccc(Cl)c1` (racemic) [bupropion, (.±.)-1-(3-chlorophenyl)-2-[(1,1-dimethylethyl)amino]-1-propanone hydrochloride], the “maintenance of low TNF” value (person two on bupropion) is given as “maintained for more than a year”. For the same compound, the TNF reads like this: (person two, on bupropion 150 mg TID, 303 pg/ml before) 7 pg/mL; (person, after two months on bupropion 150 mg BID, 347 pg/ml before) 5 pg/mL. Also, where the note is “three patients with CHF”, the “change of TNF-alpha on bupropion” value was “dropped profoundly”.
